Tested on: human breast cancer cell MDA-MD-231
Experiment: Tumor growth of breast cancer cells injected subcutaneously in nude mice
Type: in vivo
Conditions: MDA-MD-231 in nude mice, intraperitoneal, SP-2 10 μg/kg twice a week, docetaxel 7.5 mg/kg once a week, up to 44 days
Procedure: Materials and methods: Nude mice were injected subcutaneously with 5×10^6 human breast cancer cell MDA-MD-231 (cells expressing 90K). One group was injected by intraperitoneal route with phosphate buffer and served as a control. Other groups were treated by intraperitoneal route with SP-2 antibody at a dose of 10 μg/kg twice a week, or a control IgG at the same dose, or with docetaxel at a dose of 7.5 mg/kg once a week, or with a combination of SP-2 and docetaxel. Tumor growth was followed up by measuring lesion diameters up to 44 days after injection. Each group, control and treated, consisted of 8 animals.

CC(=O)O[C@@]12CO[C@@H]1C[C@H](O)[C@@]1(C)C(=O)[C@H](O)C3=C(C)[C@@H](OC(=O)[C@H](O)[C@@H](NC(=O)OC(C)(C)C)c4ccccc4)C[C@@](O)([C@@H](OC(=O)c4ccccc4)[C@H]21)C3(C)C [docetaxel]
tumor growth in comparison with control group: significantly reduced tumor growth
